Assay results from patent US20070203225A1, “METHOD OF INCREASING ENDOGENOUS ADIPONECTIN PRODUCTION AND LEPTIN PRODUCTION” (priority 2001, published 2007).
“Also recorded” adds a separate entry of the source. Like-named read-outs stand apart in the source and are kept apart here.

Assays:
leptin promoter = experiment: Leptin promoter luciferase construct transfected into 3T3-L1 cells; format: cell-based
isolated rat adipocytes [1] = experiment: Leptin secretion/production by isolated cultured rat adipocytes (RIA); format: cell-based; conditions: for Leptin (ng) Produced over 96 h / [Leptin] (ng/ml) at 96 h: isolated rat adipocytes, 96 h culture; for increase of leptin production/secretion: PDH kinase inhibitors vs control: DTNB 100 μM, NEM 0.1 μM, DCA 2 mM; for increase of leptin secretion/production: Malate 2-5 mM, fumarate 5 mM, alone or in combination, low insulin and glucose, over control; for effect on leptin secretion (in words): oleate/oleic acid 2 mM, low glucose
Method: (§1) Cell isolation/preparation: Adipocytes are prepared from epididymal fat pads from male Sprague-Dawley rats weighing 300-600 g. Epididymal fat depots are resected from halothane anesthetized rats under aseptic conditions and adipocytes are isolated by collagenase digestion by the Rodbell method (Rodbell M. Metabolism of isolated fat cells. I. Effects of hormones on glucose metabolism and lipolysis. J Biol Chem. 1964; 239: 375-380), with minor modifications as previously described (Mueller W M, Gregoire F M, Stanhope K L, Mobbs C V, Mizuno T M, Warden C H, Stem J S, Havel P J. Evidence that glucose metabolism regulates leptin secretion from isolated adipocytes. Endocrinology 139: 551-558, 1998; Mueller W M, Stanhope K L, Gregoire F, Evans J L, Havel P J. Effects of metformin and vanadium on leptin secretion from cultured rat adipocytes. Obesity Res. 8: 530-539, 2000; Medina E A, Stanhope K L, Mizuno T M, Mobbs C V, Gregoire F, Hubbard N E, Erickson K L, Havel P J. Effects of tumor necrosis factor alpha on leptin secretion and gene expression: relationship to changes of glucose metabolism in isolated rat adipocytes. Int J Obes Relat Metab Disord. 23: 896-903, 1999.). The isolated adipocytes are then incubated for 30 minutes at 37 C before being plated and cultured on Matrigel-coated plates.
(§2) Adipocyte Culture: Adipocytes are maintained in culture anchored to a basement membrane matrix (Matrigel, Becton Dickinson, Franklin Lakes, N.J.) or collagen from Cohesion Technologies, (Palo Alto, Calif.). Although all in vitro systems have inherent advantages and disadvantages, advantages of this system compared with cultures containing free-floating adipocytes are that the matrix simulates their normal basement membrane attachment and that the cells are maintained in close proximity to each other, allowing direct cell to cell contact. Together the cell contact and basement membrane attachment help to maintain differentiation, since adipocytes have a strong tendency to dedifferentiate in long-term (>24 h) culture. In addition, the matrix and the small amount of serum in the media both contain growth factors, which are also likely to help in maintaining cell differentiation. Furthermore, the adipocytes in this system are not exposed to toxic levels of oxygen at the interface of the media and the incubator atmosphere, as opposed to free-floating adipocytes which aggregate at the surface of the media. An advantage of the system over those containing minced adipose tissue is that all of the cells in the culture are equally exposed to the nutrients and the oxygen dissolved in the media. Thus, although clearly different from the in vivo situation, this system provides a more physiological environment than most systems for maintaining adipocytes in long-term culture.
(§3) In culturing each suspension, Matrigel is first thawed on ice to a liquid and uniformly applied to the surface of culture dishes (300 μl Matrigel/35 mm well). After the incubation period, 150 μl of the adipocyte suspension (2:1 ratio of packed cells to media) are plated on the Matrigel or collagen matrix. Adipocytes from each suspension are thoroughly mixed with a transfer pipette before plating to insure that a similar number adipocytes with a similar size distribution are added to the control and experimental wells for each suspension. The warmth of the added cells and buffer causes the Matrigel to gel around the adipocytes, or the neutralization of the acidic pH of the collagen solution to 7.0 solidifies the collagen, and both of these techniques effectively anchor the adipocytes to the culture dish. After a 30 minute incubation at 37° C., 2 ml of warm culture medium is added. The cells are maintained in an incubator at 37° C. for 96 hours with 6% CO2. Aliquots of adipocytes from each animal are divided into wells, with the different concentrations of insulin or other agents to be tested. In each plate an appropriate control well contains adipocytes from the same animal. […]

isolated rat adipocytes [2] = conditions: cited from earlier work; for effect on leptin secretion (in words): citrate
cultured rat adipocytes = experiment: Adiponectin secretion by isolated cultured rat adipocytes over 96 h; format: cell-based; conditions: DTNB 100 μM, DCA 2 mM; 96 h culture, n=6
Method: Several studies have reported that thiazolidenediones (TZDs), agonists of PPARγ, increase adiponectin expression and circulating levels in animals (Maeda, 2001; Yamauchi, 2001a; Ye, 2003). TZD (10 μM Troglitazone) stimulated of adiponectin secretion from cultured rat adipocytes from 3 different depots (n=6). Mesenteric fat produced the largest amount of adiponectin over 96 hours in culture. (FIG. 5A). Adiponectin secretion from both the control- and TZD-treated adipocytes was well correlated with the glucose utilization (control, r=0.79; p<0.001); (TZD-treated, r=0.84, p=<0.0001, FIG. 5B) showing that, similar to leptin production, glucose metabolism also is involved in the regulation of adiponectin production by adipocytes.
Insulin increased adiponectin production from 3 different fat depots, however as in the experiments with troglitazone, the mesenteric depot produced the most adiponectin (FIG. 6B). Like leptin, both basal and insulin-stimulated adiponectin secretion was highly correlated to glucose utilization (r=0.91, p<0.0001) (FIG. 6C), and inversely related to the proportion of glucose metabolized to lactate (r=−0.81, p<0.0001) (FIG. 6D).
Also paralleling the regulation of leptin, adiponectin secretion by isolated cultured adipocytes was increased during 96 h culture by inhibitors of PDH-K. DTNB (100 μM) increased adiponectin secretion by 40% (p<0.03, n=6, FIG. 7A). DCA (2 mM) increased adiponectin secretion by 23% (p<0.025, n=6, FIG. 7B). The increase in adiponectin induced by DTNB was highly correlated with glucose utilization (r=0.95, p<0.004). Furthermore in adipocytes transfected with antisense directed at PDH-K, adiponectin secretion was stimulated by 24.3±8.4%, p<0.05, n=7, FIG. 7C).
as §1
Adipocyte Culture: Adipocytes are maintained in culture anchored to a basement membrane matrix (Matrigel, Becton Dickinson, Franklin Lakes, N.J.) or collagen from Cohesion Technologies, (Palo Alto, Calif.). […]

isolated rat adipocytes [3] = experiment: Glucose utilization (uptake) by isolated cultured rat adipocytes; format: cell-based; conditions: for Glucose Uptake (μg) over 96 h: isolated rat adipocytes, 96 h culture
Method: as §1, §2, §3

isolated rat adipocytes [4] = experiment: Lactate production and proportion of glucose anaerobically metabolized to lactate in isolated cultured rat adipocytes; format: cell-based; conditions: for Glucose to Lactate (%) / Lactate Produced (μg) over 96 h: isolated rat adipocytes, 96 h culture
Method: as §1, §2, §3

isolated rat adipocytes [5] = experiment: Incorporation of glucose carbon into triglyceride in cultured adipocytes; format: cell-based; conditions: DTNB 100 μM, NEM 0.1 μM, DCA 2 mM
Method: Incorporation of Glucose Carbon into Triglyceride: To measure glucose incorporation into triglyceride, cultures are exposed to media containing 0.01 uCi/ml of ^14C-glucose. After 96 hr, media and extracellular lipid is removed from the well and methanol added. Then scrape the collagen-cell matrix from the well and transfer into a 50 ml glass tube. Rinse the well and scrape again in methanol to assure complete transfer of cells. Total triglycerides will be extracted using the Folch method (Folch, 1957). An aliquot of the lipid extract will be placed into vials containing scintillation fluid then radioactivity will be measured.
The first measurement is used to calculate the amount of glucose incorporated into triglycerides. Another aliquot of the lipid extract is placed into pre-weighed aluminum pans to determine the total amount of triglyceride per well. The remaining lipid is saponified and acidified to separate the glycerol and fatty acids. An aliquot of the lipid extract is placed into vials containing scintillation fluid and counted. This second count represents the ^14C-glucose incorporation into fatty acids. By subtraction, the amount that was incorporated into triglyceride though glycerol is also determined. Glucose incorporation into triglyceride and into the fatty acid portion of the triglyceride are calculated by multiplying disintegration per min by total ug of glucose/well over the total DPM/well.

isolated rat adipocytes [6] = experiment: Glucose oxidation: incorporation of 14C-glucose into CO2 by isolated rat adipocytes; format: cell-based
Method: Substrate Oxidation: Oxidation is measured using a modification of the method of Rodbell (Rodbell, 1964) and a modification of the cell culture system described by Bottcher and Furst (Bottcher, 1996). Briefly, adipocytes are isolated, counted and sized as previously described. Adipocytes are plated as described except they are placed in a sterile 20 ml scintillation vial instead of a well. Two ml of treatment media containing [U-^14C]-substrate (0.3 uCi/ml; glucose, fatty acids, malate, fumarate, pyruvate) is added to the vials. The vials are filled with 95% O2-5% CO2 gas and capped with rubber stoppers fitted with a hanging center well. Each well contains a 2×8 cm strip of Whatman No. 1 paper. Vials are maintained at 37° C. for 48 hr. After 48 hr, a sample of media is removed from each vial using a 4 inch, 23 gauge needle. Using another syringe and 23 gauge needle, 200 ul of sodium benzethonium is placed onto the paper strip and hanging well to capture CO2. Concentrated sulfuric acid is added to the vial in order to lyse cells and liberate all CO2 from the collagen matrix. After 24 hours, the hanging well and paper are transferred to another vial containing scintillation fluid and counted. The data are expressed as % DPM recovered as CO2 of the total DPM remaining in the media at 48 hours and as micromoles of substrate oxidized over time.

[7] = DCA 2.0 mM + insulin 0.48 nM vs control (insulin only)
[8] = NEM 0.1 μM + insulin 0.48 nM vs control (insulin only)
[9] = DTNB 100 μM, NEM 0.1 μM, DCA 2 mM

## O=CC[C@@H](O)[C@H](O)[C@H](O)CO [2-DG, 2-deoxy-D-glucose]
Leptin promoter; insulin 10 nM, 2-DG 10 mg/dl
  effect on activity of control plasmid (in words): unaffected
Leptin promoter; insulin 0.1 to 10 nM, 2-DG 10 mg/dl on basal and insulin-stimulated (10 nM) activity
  effect on leptin promoter activity (in words): markedly inhibited; also recorded: completely blocked
Isolated rat adipocytes [1]; 2-DG treatment
  effect on leptin secretion and ob gene expression (in words): suppressed

## O=C(O)CC(O)(CC(=O)O)C(=O)O [Citrate]
Isolated rat adipocytes [2]; low glucose and insulin concentration
  effect on leptin secretion (in words): stimulates
Isolated rat adipocytes [2]; presence of high insulin and glucose
  effect on leptin secretion (in words): does not affect

## O=C(O)C(Cl)Cl [DCA, Dichloroacetate]
Cultured rat adipocytes
  increase of adiponectin secretion: 23%
Isolated rat adipocytes [1]; [7]
  % ΔLeptin Produced over 96 h: +17.6 ± 4.7%
  % Δ[Leptin] (ng/ml) at 96 h: +17.9 ± 7.9%
  Change in Parameter: Leptin (ng) Produced over 96 h: +12.9 ± 3.6 ng
  Change in Parameter: [Leptin] (ng/ml) at 96 h: +3.6 ± 1.0 ng/ml
Isolated rat adipocytes [1]; DCA 2.0 mM + insulin 0.48 nM
  Leptin (ng) Produced over 96 h: 88.3 ± 7.5 ng
  [Leptin] (ng/ml) at 96 h: 27.0 ± 2.6 ng/mL
Isolated rat adipocytes [1]; cultured adipocytes
  increase of leptin production/secretion: 20-25%
Isolated rat adipocytes [3]; [7]
  Change in Parameter: Glucose Uptake (μg) over 96 h: -46 ± 57 µg
Isolated rat adipocytes [3]; DCA 2.0 mM + insulin 0.48 nM
  Glucose Uptake (μg) over 96 h: 1082 ± 117 µg
Isolated rat adipocytes [4]; [7]
  Change in Parameter: Glucose to Lactate (%): −16.1 ± 1.3%
  Change in Parameter: Lactate Produced (μg) over 96 h: -181 ± 10 µg
Isolated rat adipocytes [4]; DCA 2.0 mM + insulin 0.48 nM
  Glucose to Lactate (%): 7.9 ± 0.9%
  Lactate Produced (μg) over 96 h: 81 ± 4 µg

## O=C(O)CC(O)C(=O)O (stereo not drawn) [Malate]
Isolated rat adipocytes [1]
  increase of leptin secretion/production: 20%
Isolated rat adipocytes [1]; listed as malate
  increase of leptin secretion/production: +20%

## CCN1C(=O)C=CC1=O [NEM, N-ethylmaleimide]
Isolated rat adipocytes [5]
  effect on proportion of glucose incorporated into TG (in words): without affecting
Isolated rat adipocytes [1]; [8]
  % ΔLeptin Produced over 96 h: +26.6 ± 6.2%
  % Δ[Leptin] (ng/ml) at 96 h: +25.3 ± 6.3%
  Change in Parameter: Leptin (ng) Produced over 96 h: +14.2 ± 4.2 ng
  Change in Parameter: [Leptin] (ng/ml) at 96 h: +4.0 ± 1.0 ng/ml
Isolated rat adipocytes [1]; NEM 0.1 μM + insulin 0.48 nM
  Leptin (ng) Produced over 96 h: 63.4 ± 8.2 ng
  [Leptin] (ng/ml) at 96 h: 18.4 ± 2.4 ng/mL
Isolated rat adipocytes [1]; PDH kinase inhibitors DTNB, NEM, DCA, cultured adipocytes
  effect on leptin production/secretion (in words): increase
Isolated rat adipocytes [1]; cultured adipocytes
  increase of leptin production/secretion: 25%
Isolated rat adipocytes [3]; [9]
  effect on total / insulin-mediated glucose utilization (in words): increased
Isolated rat adipocytes [3]; [8]
  Change in Parameter: Glucose Uptake (μg) over 96 h: +348 ± 114 μg
Isolated rat adipocytes [3]; NEM 0.1 μM + insulin 0.48 nM
  Glucose Uptake (μg) over 96 h: 1399 ± 132 µg
Isolated rat adipocytes [4]; [9]
  effect on glucose not converted to lactate or incorporated into TG (OTHER; glucose flux into oxidation), by subtraction (in words): increased
  effect on proportion of glucose anaerobically metabolized to lactate (in words): decreased
Isolated rat adipocytes [4]; DTNB 100 μM, NEM 0.1 μM, DCA 0.1 to 5.0 mM
  effect on lactate production (in words): without any increase
Isolated rat adipocytes [4]; [8]
  Change in Parameter: Glucose to Lactate (%): −6.9 ± 2.3%
  Change in Parameter: Lactate Produced (μg) over 96 h: -10 ± 13 µg
Isolated rat adipocytes [4]; NEM 0.1 μM + insulin 0.48 nM
  Glucose to Lactate (%): 13.6 ± 1.5%
  Lactate Produced (μg) over 96 h: 178 ± 11 µg

## CCCCCCCC/C=C\CCCCCCCC(=O)O [oleate, oleic acid]
Isolated rat adipocytes [1]
  effect on leptin secretion (in words): increased
Isolated rat adipocytes [1]; listed as oleic acid
  effect on leptin secretion (in words): increases
Isolated rat adipocytes [6]; Rattus norvegicus, Adipocyte, oleate 2 mM, n=7
  inhibition at 2000 µM: 30%
Isolated rat adipocytes [6]; oleic acid 2 mM, low glucose
  effect on glucose oxidation (in words): inhibits

## [F-].[Na+] [sodium fluoride]
Isolated rat adipocytes [2]; glycolysis suppressed with sodium fluoride
  effect on leptin expression and secretion (in words): reduced
